Converted amounts (≈) assume the structure as drawn. Like-named read-outs stand apart in the source and are kept apart here.

For data set [1], the system named is Mycobacterium tuberculosis H37 Rv. Nature of the data set: Antibacterial activity assay (MIC, broth dilution). Type of data set: cell-based. Conditions: H37RV, 168 h; Mycobacterium tuberculosis H37 Rv; […]; read-out: MIC, TB. On the technique in general: Broth dilution looks for growth in wells or tubes with falling amounts of substance.
The subject of data set [2] is Bacillus anthracis Sterne 34F2. The data set can be described thus: microbe, parasite or virus in culture. Type of data set: cell-based. Conditions: STERNE34F2, read-out: MIC, BA.
Data set [3] concerns Bacillus subtilis ATCC 23857. The data set can be described thus: Antibacterial activity assay (MIC, broth dilution). The note with it: ATCC23857; Bacillus subtilis ATCC 23857; read-out: MIC, BS. The data set is classed as cell-based.
Data set [4] has as its system Streptococcus pneumoniae DAW30EC. The data set can be described thus: Antibacterial activity assay (MIC, broth dilution). The note with it: Streptococcus pneumoniae DAW30EC; read-out: MIC, SPn. Type of data set: cell-based.
Data set [5] concerns Enterococcus faecalis ATCC 33186. Nature of the data set: Antibacterial activity assay (MIC, broth dilution). The data set is classed as cell-based. The note with it: ATCC33186; Enterococcus faecalis ATCC 33186; read-out: MIC, EF.
The subject of data set [6] is Methicillin Resistant Staphylococcus aureus ATCC 33591. The data set can be described thus: Antibacterial activity assay (MIC, broth dilution). Type of data set: cell-based. The note with it: ATCC 33591 / MRSA, read-out: MIC, MRSA.
The test system of data set [7] is Methicillin sensitive Staphylococcus aureus 8325 ATCC 35556. Nature of the data set: Antibacterial activity assay (MIC, broth dilution). Conditions: ATCC 35556 / MSSA; Methicillin sensitive Staphylococcus aureus 8325 ATCC 35556; read-out: MIC, MSSA. Type of data set: cell-based.
Data set [8] has as its system Propionibacterium acnes ATCC 6919. The data set can be described thus: Antibacterial activity assay (MIC, broth dilution). The note with it: Cutibacterium acnes, ATCC6919; Propionibacterium acnes ATCC 6919; read-out: MIC, PA. The data set is classed as cell-based.
Data set [9] concerns Streptococcus pyogenes ATCC 700294. Nature of the data set: Antibacterial activity assay (MIC, broth dilution). The data set is classed as cell-based. Conditions: ATCC700294; Streptococcus pyogenes ATCC 700294; read-out: MIC, SP.
The nature of another data set: Cytotoxicity assay (MTT). Type of data set: cell-based, monkey. Conditions: monkey, Vero cells, 72 hours, MTT, read-out: IC50 (Cytotoxicity): Concentration which reduces viability of Vero kidney cells by 50%. Here is the method: (§1) Cytotoxicity assays of drugs of Formula I of Example 3 and of Formula II of Example 5 were performed using the Vero monkey kidney cell line (ATCC, CCL-81). Vero cells were grown in tissue culture flasks in Dulbecco's Modified Eagle's Medium (ATCC) supplemented with 10% fetal bovine serum and maintained in a humidified incubator (37° C., 5% CO2). Cells were removed with a cell scraper, collected by centrifugation and then suspended in fresh medium at ˜10^6 cells/mL. The cell suspensions were dispensed into 96-well microtiter plates (100 μl/well) and incubated for 18 hours at 37° C. before being used for cytotoxicity assays. Test compounds were subsequently added at concentrations ranging from 400-0.024 μg/mL and 0.1% vol/vol of Triton-X 100, which causes 100% death of cells, was included as a control. After incubating cells and compounds for 72 hours in humid air (37° C., 5% CO2) the cytopathic effects of compounds were determined using the MTT Cell Proliferation Assay (ATCC, Cat No. 30-1010K). The MTT solution reagent (10 μl) was added to each well and plates incubated at 37° C. until sufficient purple color development occurred in cells (3 hours). After detergent cell lysis, the purple formazan product was measured at 570 nm in a Synergy HT Biotek microplate reader. IC50 data was obtained from dose response curves plotted from percentage activity versus log10 concentration using Graphpad prism 5.

Data set [10] has as its system Vero monkey kidney cell line (ATCC, CCL-81). Nature of the data set: Cytotoxicity assay (MTT). The data set is classed as cell-based. Here is the method:
as §1

Where [11] appears, read: Vero monkey kidney cells (ATCC CCL-81).
Setting [12] is: IC50 divided by MIC against S. aureus 8325.

For the compound `CC(C)C[C@@H]1C(O)=C(C#N)C(=O)N1Cc1ccc(F)cc1` [Compound 12f, (R)-1-(4-fluorobenzyl)-4-hydroxy-5-isobutyl-2-oxo-2,5-dihydro-1H-pyrrole-3-carbonitrile], the MIC in [1], in [2], in data set [3], in data set [4], in data set [5] and in [6] was more than 200 µg/mL throughout. For the same compound, the MIC in data set [7], in data set [8] and in data set [9] was more than 200 µg/mL each time.
Regarding `C/C(O)=C1\C(=O)[C@H](Cc2ccccc2)N(Cc2ccccc2)C1=O` [Compound 13c, (S,Z)-1,5-dibenzyl-3-(1-hydroxyethylidene)pyrrolidine-2,4-dione], the MIC was more than 200 µg/mL in [1]; 25 µg/mL (≈ 77.8 µM) in data set [2]; 25 µg/mL (≈ 77.8 µM) in data set [3]; 100 µg/mL (≈ 311 µM) in data set [4]; 100 µg/mL (≈ 311 µM) in [5]; 25 µg/mL (≈ 77.8 µM) in [6]. The figures for the MIC in data set [7], in data set [8] and in data set [9] were 12.5 µg/mL (≈ 38.9 µM), 12.5 µg/mL (≈ 38.9 µM) and more than 200 µg/mL, respectively. Moreover, in “Cytotoxicity assay (MTT)” (setting [11]), the IC50 at 72 h is 75.7 µg/mL. Besides, the “IC50/MIC = Selectivity (therapeutic) index” value in data set [10] (setting [12]) turned out to be 6.1.
Take `CCCCCCCCCCN1C(=O)/C(=C(/C)O)C(=O)[C@H]1CC(C)C` [Compound 13o, (R,Z)-1-decyl-3-(1-hydroxyethylidene)-5-isobutylpyrrolidine-2,4-dione]: the MIC is 25 µg/mL (≈ 74.1 µM) in [1]; 0.8 µg/mL (≈ 2.37 µM) in [2]; 0.8 µg/mL (≈ 2.37 µM) in [3]; 6.25 µg/mL (≈ 18.5 µM) in data set [4]; 1.6 µg/mL (≈ 4.74 µM) in data set [5]; 0.8 µg/mL (≈ 2.37 µM) in [6]. The MIC in data set [7] amounted to 0.4 µg/mL (≈ 1.19 µM); in [8] it was 0.8 µg/mL (≈ 2.37 µM); in [9] it was 50 µg/mL (≈ 148 µM). Moreover, in the data set “Cytotoxicity assay (MTT)” (setting [11]), the IC50 at 72 h is 6.3 µg/mL. Moreover, the “IC50/MIC = Selectivity (therapeutic) index” value in data set [10] (setting [12]) stood at 15.8.
As to `CCC(C)[C@H]1C(O)=C(C#N)C(=O)N1Cc1ccco1` (stereo partly drawn) [Compound 12p, (S)-5-sec-butyl-1-(furan-2-ylmethyl)-4-hydroxy-2-oxo-2,5-dihydro-1H-pyrrole-3-carbonitrile], the MIC in [1] is more than 200 µg/mL; in [2] it was 3.12 µg/mL (≈ 12 µM); in data set [3], 25 µg/mL (≈ 96 µM); in [4] it was 50 µg/mL (≈ 192 µM); in [5], 3.12 µg/mL (≈ 12 µM); in data set [6], more than 200 µg/mL. The MIC was more than 200 µg/mL in [7], 12.5 µg/mL (≈ 48 µM) in [8] and more than 200 µg/mL in data set [9]. Besides, the IC50 at 72 h in “Cytotoxicity assay (MTT)” stood at 6400 µg/mL. In addition, the “IC50/MIC = Selectivity (therapeutic) index” value in [10] (IC50 divided by MIC against E. faecalis (12p only)) was determined as 2049.7.
Turning to `N#CC1=C(O)[C@@H](Cc2ccccc2)N(Cc2ccccc2)C1=O` [Compound 12g, (R)-1,5-dibenzyl-4-hydroxy-2-oxo-2,5-dihydro-1H-pyrrole-3-carbonitrile], the MIC in data set [1], in data set [2], in data set [3], in data set [4], in data set [5] and in [6] was more than 200 µg/mL each time. For the same compound, the MIC in data set [7], in data set [8] and in [9] was more than 200 µg/mL each time.
For `CCCCCCCCCCN1C(=O)C(C#N)=C(O)[C@@H]1CC(C)C` [Compound 12b, (S)-1-decyl-4-hydroxy-5-isobutyl-2-oxo-2,5-dihydro-1H-pyrrole-3-carbonitrile], the MIC was 3.12 µg/mL (≈ 9.74 µM) in data set [1]; 25 µg/mL (≈ 78 µM) in [2]; 50 µg/mL (≈ 156 µM) in data set [3]; 100 µg/mL (≈ 312 µM) in data set [4]; 25 µg/mL (≈ 78 µM) in data set [5]; 25 µg/mL (≈ 78 µM) in data set [6]. The MIC was 25 µg/mL (≈ 78 µM) in data set [7], 12.5 µg/mL (≈ 39 µM) in data set [8] and more than 200 µg/mL in data set [9]. The IC50 at 72 h in “Cytotoxicity assay (MTT)” was 152 µg/mL. For the same compound, in [10] (setting [12]), the “IC50/MIC = Selectivity (therapeutic) index” value was found to be 6.1.
As for `CC(C)C[C@H]1C(O)=C(C#N)C(=O)N1Cc1ccc(F)cc1` [Compound 12e, (S)-1-(4-fluorobenzyl)-4-hydroxy-5-isobutyl-2-oxo-2,5-dihydro-1H-pyrrole-3-carbonitrile], the MIC in [1], in data set [2], in data set [3], in [4], in data set [5] and in data set [6] was more than 200 µg/mL throughout. Moreover, the MIC in data set [7], in data set [8] and in [9] was more than 200 µg/mL in each case.
As for `N#CC1=C(O)[C@H](Cc2ccccc2)N(Cc2ccccc2)C1=O` [Compound 12c, (S)-1,5-dibenzyl-4-hydroxy-2-oxo-2,5-dihydro-1H-pyrrole-3-carbonitrile], the MIC in [1], in data set [2], in data set [3], in data set [4], in data set [5] and in data set [6] was more than 200 µg/mL in each case. Also, the MIC in data set [7], in data set [8] and in [9] was more than 200 µg/mL in each case.
As for `CCN1C(=O)/C(=C(/C)O)C(=O)[C@@H]1Cc1ccccc1` [Compound 13h, (S,Z)-5-benzyl-1-ethyl-3-(1-hydroxyethylidene)pyrrolidine-2,4-dione], the MIC was more than 200 µg/mL in data set [1]; 50 µg/mL (≈ 193 µM) in data set [2]; more than 200 µg/mL in [3]; more than 200 µg/mL in data set [4]; more than 200 µg/mL in data set [5]; more than 200 µg/mL in [6]. The results for the MIC in [7], in data set [8] and in data set [9] were 200 µg/mL (≈ 771 µM), 100 µg/mL (≈ 386 µM) and more than 200 µg/mL, respectively.
On to `CCC(C)[C@H]1C(O)=C(C#N)C(=O)N1Cc1ccccc1` (stereo partly drawn) [Compound 12a, (S)-1-benzyl-5-sec-butyl-4-hydroxy-2-oxo-2,5-dihydro-1H-pyrrole-3-carbonitrile], for which the MIC in data set [1], in data set [2], in data set [3], in data set [4], in [5] and in data set [6] was more than 200 µg/mL throughout. Besides, the MIC in data set [7], in data set [8] and in data set [9] was more than 200 µg/mL in each case.
For the compound `CCC(C)[C@H]1C(=O)/C(=C(\C)O)C(=O)N1Cc1ccccc1` (stereo partly drawn) [Compound 13a, (S,Z)-1-benzyl-5-sec-butyl-3-(1-hydroxyethylidene)pyrrolidine-2,4-dione], the MIC in data set [1] was determined as 50 µg/mL (≈ 174 µM); in data set [2] it was 3.12 µg/mL (≈ 10.9 µM); in [3], 25 µg/mL (≈ 87 µM); in data set [4] it was 50 µg/mL (≈ 174 µM); in data set [5] it was 6.25 µg/mL (≈ 21.7 µM); in data set [6], 6.25 µg/mL (≈ 21.7 µM). For the same compound, the MIC in [7] is 6.25 µg/mL (≈ 21.7 µM); in data set [8], 6.25 µg/mL (≈ 21.7 µM); in [9], more than 200 µg/mL. The IC50 at 72 h in “Cytotoxicity assay (MTT)” came to 26.3 µg/mL. In data set [10] (setting [12]), the “IC50/MIC = Selectivity (therapeutic) index” value stood at 4.2.
In the case of `C/C(O)=C1\C(=O)[C@@H](CC(C)C)N(Cc2ccc(F)cc2)C1=O` [Compound 13f, (R,Z)-1-(4-fluorobenzyl)-3-(1-hydroxyethylidene)-5-isobutylpyrrolidine-2,4-dione], the MIC was 100 µg/mL (≈ 327 µM) in data set [1]; 12.5 µg/mL (≈ 40.9 µM) in [2]; 12.5 µg/mL (≈ 40.9 µM) in data set [3]; 25 µg/mL (≈ 81.9 µM) in data set [4]; 50 µg/mL (≈ 164 µM) in data set [5]; 12.5 µg/mL (≈ 40.9 µM) in data set [6]. Also, the MIC in data set [7] came out at 12.5 µg/mL (≈ 40.9 µM); in [8] it was 12.5 µg/mL (≈ 40.9 µM); in [9] it was 100 µg/mL (≈ 327 µM). Besides, the IC50 at 72 h in the data set “Cytotoxicity assay (MTT)” turned out to be 35.3 µg/mL. Also, the “IC50/MIC = Selectivity (therapeutic) index” value in data set [10] (setting [12]) was found to be 2.8.
In the case of `COc1cccc(CN2C(=O)C(C#N)=C(O)[C@@H]2CC(C)C)c1` [Compound 12d, (S)-4-hydroxy-5-isobutyl-1-(3-methoxybenzyl)-2-oxo-2,5-dihydro-1H-pyrrole-3-carbonitrile], the MIC in [1], in data set [2], in data set [3], in [4], in data set [5] and in data set [6] was more than 200 µg/mL throughout. For the same compound, the MIC in data set [7], in [8] and in data set [9] was more than 200 µg/mL in each case.

Values taken from patent US8552208B2, “Analogs of tetramic acid” (University of Tennesseee Research Foundation, priority 2007, dated 2013).
